Results taken from patent US20240408059A1, “METHOD OF TREATING ADDICTION” (Anebulo Pharmaceuticals, Inc., priority 2021, published 2024).

How the values were obtained:
[1] = Compound 2 in treatment of cannabis use disorder (CUD) / cannabis withdrawal; format: in vivo, human
Text: Compound 2 is used in a combination treatment for cannabis use disorder (CUD). Combinations include use of antidepressants (specifically sedating antidepressants, such as mirtazapine or trazodone), antipsychotics, CB1 agonists such as THC and allosteric CB1 modulators such as Cannabidiol. These agents improve the safety profile of a CB1 inhibitor as described herein, such as compound 2, and lessen the burden of the withdrawal symptoms.
The benefits of a combination therapy comprising compound 2 and a sedating antidepressant, such as Mirtazapine or Trazodone, are outline in Table 1 below.
Daily doses such as between about 5 mg and about 100 mg of Compound 2 are efficacious in CUD. Doses of 1-50 mg or 20 to 30 mg may also be used. Compound 2 is also evaluated in combination with daily doses of Mirtazapine at about 15 mg to about 45 mg, or daily doses of Trazodone at about 50 mg to about 400 mg. Mirtazapine is given at bedtime. In another embodiment, Compound 2 and Mirtazapine are formulated and administered as a single oral dosage form, such as a tablet or a capsule.

CYP3A4 [2] = biological target: T1, CYP3A4 (Homo sapiens, UniProt P08684); assay: Drug-drug interactions, CYP3A4 inhibition; format: in vitro ADME
T1 sequence (P08684 whole entry): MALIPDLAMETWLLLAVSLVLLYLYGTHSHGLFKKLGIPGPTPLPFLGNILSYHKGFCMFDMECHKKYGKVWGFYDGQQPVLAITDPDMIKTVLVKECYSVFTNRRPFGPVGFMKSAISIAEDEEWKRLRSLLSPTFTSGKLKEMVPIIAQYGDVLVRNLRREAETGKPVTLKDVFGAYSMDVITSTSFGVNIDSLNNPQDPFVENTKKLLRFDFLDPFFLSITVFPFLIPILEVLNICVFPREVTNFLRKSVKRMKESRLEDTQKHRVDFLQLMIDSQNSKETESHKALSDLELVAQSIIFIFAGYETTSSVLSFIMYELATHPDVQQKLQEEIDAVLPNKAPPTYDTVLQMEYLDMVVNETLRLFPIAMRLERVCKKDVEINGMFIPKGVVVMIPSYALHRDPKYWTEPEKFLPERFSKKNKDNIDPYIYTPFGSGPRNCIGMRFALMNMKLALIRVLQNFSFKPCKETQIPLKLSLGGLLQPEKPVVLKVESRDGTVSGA
Method: (§1) In steady state, the patient has 24 h coverage despite convenient once daily dosing. […] Both antidepressants and drug withdrawal can decrease the seizure threshold.

Seizure liability = settings: in vivo
Method: as §1

[3] = Half-life of Compound 2 (once daily dosing, steady state); format: in vivo; settings: accumulation enables slow onset; 24 h coverage in steady state with once daily dosing
Method: as §1

CYP3A4 [4] = biological target: T1, CYP3A4; settings: CYP3A4 inhibitors increase the concentrations of both drugs; cited from earlier work
[5] = patients taking the drug long term; vs 5%; cited from earlier work

CC(C)(C)NC(=O)N1CC(O[C@H](c2ccc(Cl)cc2)c2ccccc2C(F)(F)F)C1 [Compound 2, (R)—N-(tert-butyl)-3-((4-chlorophenyl)(2-(trifluoromethyl)phenyl)methoxy)azetidine-1-carboxamide]
Effect of Compound 2 on anxiety (withdrawal symptoms) ([1]; cannabis withdrawal): Increases anxiety
Effect of Compound 2 on high probability of THC use/relapse: anti-addictive properties ([1]; cannabis withdrawal): has anti-addictive
Effect of Compound 2 on high probability of THC use/relapse: getting high ([1]; cannabis withdrawal): Blocks getting high +
Effect of Compound 2 on mood ([1]; cannabis withdrawal): Depressed mood
Effect of Compound 2 on sleep problems (withdrawal symptoms) ([1]; cannabis withdrawal): Increases sleep
Effect of Compound 2 on weight ([1]; cannabis withdrawal): Weight loss
efficacy in CUD ([1]; daily doses between about 5 mg and about 100 mg): efficacious
drug-drug interactions, particularly CYP3A4 inhibition (CYP3A4 [2]): Lack of drug-drug interactions, particularly CYP3A4 inhibition
seizure liability (Seizure liability): Lack of seizure liability
half-life [3]: Long half-life

CN1CCN2c3ncccc3Cc3ccccc3C2C1 (stereo not shown) [Mirtazapine]
metabolizing enzyme (CYP3A4 [4]): metabolized by CYP3A4

Cc1c(C(=O)NN2CCCCC2)nn(-c2ccc(Cl)cc2Cl)c1-c1ccc(Cl)cc1 [Rimonabant]
incidence of depression [5]: 9%

O=c1n(CCCN2CCN(c3cccc(Cl)c3)CC2)nc2ccccn12 [Trazodone]
metabolizing enzyme (CYP3A4 [4]): metabolized by CYP3A4
